Laboratory results: paper PMC4444998 (Journal of Natural Products, 2015)

Assays:
Assay type in all cases: biochemical
Bovine trypsin = assay: Trypsin inhibition assay (Bz-Arg-AMC, fluorimetry); details: for inhibition of trypsin protease activity: cyclotides kalata B1 or psysol 2 at 25 µM and 75 µM, respectively, triplicate
Protocol: (§1) Inhibitory activity was performed in triplicate in 96-well microtiter plates. Bovine trypsin (10 μL of a 10 ng/μL solution; Roche, Basel, Switzerland) or bovine α-chymotrypsin (10 μL of a 2.5 ng/μL solution; Sigma-Aldrich) was preincubated for 15 min at 37 °C with buffer (125 μL of a 20 mM Tris-HCl solution, pH 8.0) and with 3 μL of the cyclotide solution or ddH2O as negative control. After preincubation, trypsin substrate (Bz-Arg-AMC-HCl, 10 μL of a 3 mM solution prepared in 40% 1,4-dioxane; Bachem, Bubendorf, Switzerland) or chymotrypsin substrate (Ala-Ala-Phe-AMC, 10 μL of a 3 mM solution prepared in 40% 1,4-dioxane; Sigma-Aldrich), respectively, was added, and the reaction was incubated while shaking (90 rpm) for 1 h at 37 °C. The reaction was stopped with sodium acetate (150 μL, 1 M, pH 4), and the formation of AMC was measured by fluorimetry. The excitation and emission wavelengths were 360 ± 40 and 485 ± 20 nm, respectively. Phenylmethane-sulfonylfluoride (PMSF; 3 μL of a 5 mM solution in DMSO) was used as a positive control of inhibition; additional controls with DMSO solution only were also performed. Data were calculated as percentage of inhibition and are presented as mean ± STDEV (of three replicates).

bovine α-chymotrypsin = assay: Chymotrypsin inhibition assay (Ala-Ala-Phe-AMC, fluorimetry); details: for inhibition of chymotrypsin activity: cyclotides at 25 µM and 75 µM, triplicate
Protocol: as §1

[1] = molecular target: T1, human prolyl oligopeptidase (POP) (Homo sapiens, UniProt P48147); assay: Prolyl oligopeptidase inhibition assay (Z-Gly-Pro-AMC, fluorimetry)
T1 construct: made in house
T1 sequence (P48147 1-710): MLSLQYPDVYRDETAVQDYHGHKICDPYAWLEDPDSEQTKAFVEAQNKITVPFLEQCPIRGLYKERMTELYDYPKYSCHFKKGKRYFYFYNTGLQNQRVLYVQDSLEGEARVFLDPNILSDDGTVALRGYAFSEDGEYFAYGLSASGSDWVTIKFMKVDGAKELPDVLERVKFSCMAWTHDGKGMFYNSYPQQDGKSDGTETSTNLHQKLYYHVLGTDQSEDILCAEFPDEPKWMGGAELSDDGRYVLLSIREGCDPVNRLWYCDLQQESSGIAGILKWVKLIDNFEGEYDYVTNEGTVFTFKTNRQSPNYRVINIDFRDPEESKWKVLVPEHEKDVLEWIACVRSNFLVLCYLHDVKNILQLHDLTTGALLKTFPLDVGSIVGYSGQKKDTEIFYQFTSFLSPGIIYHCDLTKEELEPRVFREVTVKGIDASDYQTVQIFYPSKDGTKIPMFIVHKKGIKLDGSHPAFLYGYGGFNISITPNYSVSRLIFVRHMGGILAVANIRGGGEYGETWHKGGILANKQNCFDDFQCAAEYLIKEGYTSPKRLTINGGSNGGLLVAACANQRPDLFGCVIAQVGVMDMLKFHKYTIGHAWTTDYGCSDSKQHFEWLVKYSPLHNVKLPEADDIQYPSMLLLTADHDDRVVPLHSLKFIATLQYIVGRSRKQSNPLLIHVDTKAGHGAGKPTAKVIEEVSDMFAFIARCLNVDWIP

Row | Structure (SMILES) | inhibition of trypsin protease activity (Bovine trypsin) | inhibition of chymotrypsin activity (bovine α-chymotrypsin) | selectivity toward inhibition of POP over trypsin and chymotrypsin ([1]; POP IC50 compared with no inhibition of trypsin/chymotrypsin at 25 and 75 μM) | inhibition of trypsin activity (positive control) (Bovine trypsin; 100 µM) | inhibition of chymotrypsin activity (positive control) (bovine α-chymotrypsin; 100 µM) | IC50 ([1]; POP enzyme inhibition potency IC50, synthetic cyclotide, mean of three replicates) [µM]
1 | CC(C)C[C@@H]1NC(=O)CNC(=O)[C@H](CC(N)=O)NC(=O)[C@H](CCCNC(=N)N)NC(=O)[C@H]([C@@H](C)O)NC(=O)[C@@H]2CSSC[C@@H]3NC(=O)[C@H]([C@@H](C)O)NC(=O)CNC(=O)CNC(=O)[C@H](C(C)C)NC(=O)[C@@H]4CSSC[C@H](NC(=O)[C@H]([C@@H](C)O)NC(=O)[C@H](CSSC[C@H](NC(=O)[C@H](C(C)C)NC(=O)[C@@H]5CCCN5C1=O)C(=O)NCC(=O)N[C@@H](CCC(=O)O)C(=O)N[C@@H]([C@@H](C)O)C(=O)N4)NC(=O)CNC(=O)[C@@H]1CCCN1C(=O)[C@H]([C@@H](C)O)NC(=O)[C@H](CC(N)=O)NC3=O)C(=O)N[C@@H](CO)C(=O)N[C@@H](Cc1c[nH]c3ccccc13)C(=O)N1CCC[C@H]1C(=O)N[C@@H](C(C)C)C(=O)N2 [kalata B1] | not inhibited | had no effect | at least an order of magnitude more selective | – | – | –
2 | O=S(=O)(F)Cc1ccccc1 [PMSF, Phenylmethane-sulfonylfluoride] | – | – | – | able to inhibit | completel y blocked | –
3 | CC[C@H](C)[C@@H]1NC(=O)[C@@H]2CCCN2C(=O)[C@H](CC(C)C)NC(=O)CNC(=O)[C@H](CC(N)=O)NC(=O)[C@H](CCCNC(=N)N)NC(=O)[C@H]([C@@H](C)O)NC(=O)[C@@H]2CSSC[C@@H]3NC(=O)[C@H]([C@@H](C)O)NC(=O)CNC(=O)CNC(=O)[C@H](C(C)C)NC(=O)[C@@H]4CSSC[C@H](NC(=O)[C@H]([C@@H](C)O)NC(=O)[C@H](CSSC[C@H](NC1=O)C(=O)NCC(=O)N[C@@H](CCC(=O)O)C(=O)N[C@@H](CO)C(=O)N4)NC(=O)CNC(=O)[C@@H]1CCCN1C(=O)[C@H]([C@@H](C)O)NC(=O)[C@H](CC(N)=O)NC3=O)C(=O)N[C@@H]([C@@H](C)O)C(=O)N[C@@H](Cc1c[nH]c3ccccc13)C(=O)N1CCC[C@H]1C(=O)N[C@@H](C(C)C)C(=O)N2 [psysol 2 (1), psysol 2] | not inhibited | had no effect | – | – | – | 27.8
